Assay results taken from patent US8222218B2, “Cyclopropanated carbohydrates” (Seton Hall University, priority 2008, dated 2012).
Where two headings read alike, the source gives them in different places.

Tests used:
[1] = Acute toxicity, minimal motor impairment (rotorod), mice; format: in vivo; conditions: for TOX 30 0.5 h (animals toxic/tested) / TOX 30 4 h (animals toxic/tested) / TOX 100 0.5 h (animals toxic/tested) / TOX 100 4 h (animals toxic/tested) / TOX 300 0.5 h (animals toxic/tested) / TOX 300 4 h (animals toxic/tested): mice, rotorod; for TOX 30 0.5 h (animals toxic/tested) / TOX 30 4 h (animals toxic/tested): 30 mg/kg; for TOX 100 0.5 h (animals toxic/tested) / TOX 100 4 h (animals toxic/tested): 100 mg/kg; for TOX 300 0.5 h (animals toxic/tested) / TOX 300 4 h (animals toxic/tested): 300 mg/kg
Description: (§1) Toxicity was measured using the minimal motor impairment test described below.
Animals are monitored for overt signs of impaired neurological or muscular function to assess a compound's toxicity. In mice, the rotorod procedure is used to disclose minimal muscular or neurological impairment. When a mouse is placed on a rotating rod (6 rpm), the animal can maintain its equilibrium for long periods of time. The animal is considered toxic if it falls off the rotating rod three times during a 1 minute period. In rats, minimal motor deficit is indicated by ataxia, which is manifested by an abnormal, uncoordinated gait.

[2] = system: metrazole-induced clonic seizures; assay: Subcutaneous Metrazole Seizure Threshold Test (scMET), mice; format: in vivo; conditions: mice; for responders at 30 mg/kg / responders at 100 mg/kg / responders at 300 mg/kg: Mus musculus, sc
Description: (§2) The subcutaneous injection of metrazole, which is a convulsant, produces clonic seizures in laboratory animals. The scMET test is designed to identify compounds that raise the seizure threshold of an animal. Mice are pretreated with test compound at 30, 100, and 300 mg/kg doses in a similar manner to the MES test. Rats are treated with a 50 mg/kg dose (p.o.). At the previously determined TPE of the test compound, the dose of metrazole that will induce convulsions in 97% of animals (CD97: 85 mg/kg mice) is injected into the loose fold of the skin in the midline of the neck. The animals are placed in isolation cages to minimize stress and observed for the next 30 minutes for the presence or absence of seizures. An episode of clonic spasms (approximately 3-5 seconds) of the fore and/or hindlimbs, jaws or vibrissae is taken as the endpoint.
(§3) Male and female albino CF1 mice (18-25 g, Charles River, Portage, Mich.) and male albino Sprague-Dawley rats (275-300 g, kindling test; 100-150 g all other tests; Charles River, Raleigh, N.C.) were used as experimental animals.

MES-induced seizures = assay: Maximal Electroshock Seizure (MES) test, mice; format: in vivo; conditions: mice, i.p.; for responders at 30 mg/kg / responders at 100 mg/kg / responders at 300 mg/kg: Mus musculus, ip
Text: (§4) The MES test is a model for generalized tonic-clonic seizures. The seizures are highly reproducible and electrophysiologically consistent with human seizures. The test provides information about a compound's ability to prevent the spread of seizure when all neuronal circuits of the brain are maximally active. 60 Hz of alternating current (50 mA in mice, 150 mA in rats) is applied for 2 seconds via corneal electrodes that have been treated with an electrolyte solution containing an anesthetic (0.5% tetracaine HCl). Mice are tested at a variety of intervals after an i.p. injection of […] solution of the test compound (commonly in a 0.5% solution of methylcellulose) at 30, 100, and 300 mg/kg doses. Rats are examined after a 30 mg/kg (per os, p.o.) dose that is applied in a volume of 0.04 mL/g. An animal is considered “protected” from MES-induced seizures upon removal of the hind limb extensor component of the seizure.
as §3

seizures = assay: In vivo anticonvulsant screening (MES, scMET, minimal clonic seizure), summary in words; design: species or system rat, mouse; conditions: summary of Table 2
Description: as §1, §4, §2
The minimal clonic seizure (6 Hz) test, like the MES test, is used to assess a compound's ability to protect against electrically-induced seizures. The minimal clonic (6 Hz) seizure test uses a lower frequency (6 Hz) and a longer duration of stimulation (3 seconds) than the MES test. Test compounds are pre-administered to mice via i.p. injection. At varying times, individual mice (four per time point) are challenged with sufficient current via corneal electrodes to elicit a psychomotor seizure in 97% of animals (32 mA for 3 second). Untreated mice will display seizure characterized by a minimal clonic phase followed by stereotyped, automatistic behaviors described originally as being similar to the aura of human patients with partial seizures. Animals not displaying this behavior are considered to be protected.

[3] = 30 mg/kg, 0.4 h, read-out: scMET 30 0.4 h (animals protected/tested)
[4] = 30 mg/kg, 0.5 h, read-out: scMET 30 0.5 h (animals protected/tested)
[5] = 100 mg/kg, 0.4 h, read-out: scMET 100 0.4 h (animals protected/tested)
[6] = 100 mg/kg, 0.5 h, read-out: scMET 100 0.5 h (animals protected/tested)
[7] = 300 mg/kg, 0.4 h, read-out: scMET 300 0.4 h (animals protected/tested)
[8] = 300 mg/kg, 0.5 h, read-out: scMET 300 0.5 h (animals protected/tested)
[9] = 30 mg/kg, 0.5 h, read-out: MES 30 0.5 h (animals protected/tested)
[10] = 30 mg/kg, 4 h, read-out: MES 30 4 h (animals protected/tested)
[11] = 100 mg/kg, 0.5 h, read-out: MES 100 0.5 h (animals protected/tested)
[12] = 100 mg/kg, 4 h, read-out: MES 100 4 h (animals protected/tested)
[13] = 300 mg/kg, 0.5 h, read-out: MES 300 0.5 h (animals protected/tested)
[14] = 300 mg/kg, 4 h, read-out: MES 300 4 h (animals protected/tested)

SMILES	TOX 30 0.5 h (animals toxic/tested) [1]	TOX 30 4 h (animals toxic/tested) [1]	TOX 100 0.5 h (animals toxic/tested) [1]	TOX 100 4 h (animals toxic/tested) [1]	TOX 300 0.5 h (animals toxic/tested) [1]	TOX 300 4 h (animals toxic/tested) [1]	responders at 30 mg/kg [2, 3] [%]	responders at 30 mg/kg [2, 4] [%]	responders at 100 mg/kg [2, 5] [%]	responders at 100 mg/kg [2, 6] [%]	responders at 300 mg/kg [2, 7] [%]	responders at 300 mg/kg [2, 8] [%]	responders at 30 mg/kg (MES-induced seizures; [9]) [%]	responders at 30 mg/kg (MES-induced seizures; [10]) [%]	responders at 100 mg/kg (MES-induced seizures; [11]) [%]	responders at 100 mg/kg (MES-induced seizures; [12]) [%]	responders at 300 mg/kg (MES-induced seizures; [13]) [%]	responders at 300 mg/kg (MES-induced seizures; [14]) [%]	other results
CCOC(=O)C1[C@@H]2[C@@H](O)[C@@H]3O[C@H](c4ccccc4)OC[C@H]3O[C@H]12 (stereo partly drawn) [Compound 20a, Ethyl (2R,4aR,5aS,6aR,7R,7aS)-7-hydroxy-2-phenylhexahydro-4H-cyclopropa[5,6]pyrano[3,2-d][1,3]dioxine-6-carboxylate]	0/4	0/2	0/8	0/4	0/4	0/2	0	0	0	0	0	0	0	0	0	0	0	0	–
CCOC(=O)C1[C@@H]2[C@@H](O)[C@@H]3O[C@H](c4ccc(C(C)C)cc4)OC[C@H]3O[C@H]12 (stereo partly drawn) [Compound 20b, Ethyl (2R,4aR,5aS,6aR,7R,7aS)-7-hydroxy-2-[4-(propan-2-yl)phenyl]hexahydro-4H-cyclopropa[5.6]pyrano[3,2-d][1,3]dioxine-6-carboxylate]	1/4	0/2	0/8	0/4	0/4	0/2	–	–	–	–	–	–	–	–	–	–	–	–	minimal motor impairment ([1]; at same time point / dose as observed activity): minimal motor impairment at the same time point; scMET 30 0.4 h (animals protected/tested) ([2]; 30 mg/kg, 0.4 h): 0/1; scMET 30 0.5 h (animals protected/tested) ([2]; 30 mg/kg, 0.5 h): 0/1; scMET 100 0.4 h (animals protected/tested) ([2]; 100 mg/kg, 0.4 h): 0/1; scMET 100 0.5 h (animals protected/tested) ([2]; 100 mg/kg, 0.5 h): 0/1; scMET 300 0.4 h (animals protected/tested) ([2]; 300 mg/kg, 0.4 h): 0/1; scMET 300 0.5 h (animals protected/tested) ([2]; 300 mg/kg, 0.5 h): 0/1; MES 30 0.5 h (animals protected/tested) (MES-induced seizures; 30 mg/kg, 0.5 h): 1/5; MES 30 4 h (animals protected/tested) (MES-induced seizures; 30 mg/kg, 4 h): 0/1; MES 100 0.5 h (animals protected/tested) (MES-induced seizures; 100 mg/kg, 0.5 h): 0/7; MES 100 4 h (animals protected/tested) (MES-induced seizures; 100 mg/kg, 4 h): 0/3; MES 300 0.5 h (animals protected/tested) (MES-induced seizures; 300 mg/kg, 0.5 h): 0/1; MES 300 4 h (animals protected/tested) (MES-induced seizures; 300 mg/kg, 4 h): 0/1; anticonvulsant activity (seizures): showed activity
CCOC(=O)C1[C@@H]2[C@@H](O)[C@@H]3O[C@H](c4ccc(C(C)(C)C)cc4)OC[C@H]3O[C@H]12 (stereo partly drawn) [Compound 20c, Ethyl (2R,4aR,5aS,6aR,7R,7aS)-2-(4-tert-butylphenyl)-7-hydroxyhexahydro-4H-cyclopropa[5,6]pyrano[3,2-d][1,3]dioxine-6-carboxylate]	0/4	0/2	0/8	0/4	0/4	0/2	0	0	0	0	0	0	0	0	0	0	0	0	–
CCOC(=O)C1[C@@H]2[C@@H](O)[C@@H]3O[C@H](c4cccc(OC)c4)OC[C@H]3O[C@H]12 (stereo partly drawn) [Compound 20e, Ethyl (2R,4aR,5aS,6aR,7R,7aS)-7-hydroxy-2-(3-methoxyphenyl)hexahydro-4H-cyclopropa[5,6]pyrano[3,2-d][1,3]dioxine-6-carboxylate]	0/4	0/2	0/8	0/4	0/4	0/2	0	0	0	0	0	0	0	0	0	0	0	0	–
